# ChEMBL document CHEMBL5634085, “Design, synthesis and antitrypanosomatid activity of 2-nitroimidazole-3,5-disubstituted isoxazole compounds based on benznidazole” (Eur J Med Chem, 2023)
# Activity calls are given as the source filed them. No cut-off for these calls is given here.
# How the values were obtained:
# [1] = Cytotoxicity against monkey LLC-MK2 cells incubated for 72 hrs by MTT assay; assay type: toxicity, cell-based, Macaca mulatta; conditions: rhesus monkey
# Trypanosoma cruzi [2] = assay: (§1) Antitrypanosomal activity against Trypanosoma cruzi Tulahuen lacZ expressing beta-galactosidase amastigotes infected in monkey LLC-MK2 cells assessed as inhibition of amastigotes pre-infected in cells for 48 hrs followed by compound addition and measured after 72 hrs by CPRG reagent based absorbance analysis; assay type: functional, organism-based
# [3] = Selectivity index, ratio of CC50 for monkey LLC-MK2 cells to IC50 for Trypanosoma cruzi Tulahuen lacZ expressing beta-galactosidase amastigotes infected monkey LLC-MK2 cells; assay type: toxicity; conditions: read-out: Ratio CC50/IC50
# Trypanosoma cruzi [4] = assay: Binding affinity to Trypanosoma cruzi type I nitro reductase at 25 uM incubated for 5 mins in the presence of NADH by microplate reader analysis
# Trypanosoma cruzi [5] = assay: Binding affinity to Trypanosoma cruzi type I nitro reductase at 10 uM incubated for 5 mins in the presence of NADH by microplate reader analysis
# Trypanosoma cruzi [6] = assay: as §1, with “Potency index, ratio of benznidazole IC50 to test compound IC50 for antitrypanosomal” for “Antitrypanosomal”; assay type: functional
# Leishmania amazonensis [7] = assay: (§2) Antileishmanial activity against Leishmania amazonensis IFLA/BR/1967/PH8 amastigotes infected in mouse peritoneal macrophage assessed as inhibition of parasite growth pre-infected in cells for 4 hrs followed by compound addition and measured after 24 hrs by Giemsa staining based analysis; assay type: functional, organism-based; conditions: IFLA/BR/1967/PH8, Peritoneal macrophage
# [8] = Selectivity index, ratio of CC50 for cytotoxicity against monkey LLC-MK2 cells to IC50 for antileishmanial activity against Leishmania amazonensis IFLA/BR/1967/PH8 amastigotes infected in mouse peritoneal macrophage; assay type: toxicity, cell-based; conditions: read-out: Ratio CC50/IC50
# Leishmania amazonensis [9] = assay: as §2, with “Potency index, ratio of pentamidine IC50 to test compound IC50 for antileishmanial” for “Antileishmanial”; assay type: functional, Peritoneal macrophage cell
# Trypanosoma cruzi [10] = assay: Effect on infection-mediated heart weight in Trypanosoma cruzi Y strain trypomastigotes infected in BALB/c mouse model at 25 mg/kg/day, po administered for consecutive 10 days; assay type: functional, organism-based; conditions: time 10.0 day
# Trypanosoma cruzi [11] = assay: Antitrypanosomal activity against Trypanosoma cruzi Y trypomastigotes infected in BALB/c mouse model assessed as reduction of parasitemia level at 25 mg/kg/day, po administered via gavage for consecutive 10 days and measured on day 5,7,9 and 11; assay type: functional, organism-based; conditions: time 11.0 day
# Trypanosoma cruzi [12] = assay: Antitrypanosomal activity against Trypanosoma cruzi Y strain trypomastigotes infection induced hepatosplenomegaly BALB/c male mouse model assessed as change in infection-mediated liver weight at 25 mg/kg/day, po administrated for consecutive 10 days; assay type: functional, organism-based; conditions: time 10.0 day
# Trypanosoma cruzi [13] = assay: Antitrypanosomal activity against Trypanosoma cruzi Y strain trypomastigotes infection induced hepatosplenomegaly BALB/c male mouse model assessed as change in infection-mediated spleen weight at 25 mg/kg/day, po administrated for consecutive 10 days; assay type: functional, organism-based; conditions: time 10.0 day
# [14] = Toxicity in BALB/c mouse infected with Trypanosoma cruzi Y trypomastigotes assessed as body weight gain at 25 mg/kg/day, po administrated via gavage for consecutive 10 days; assay type: organism-based; conditions: in vivo, 240 h, time 10 day
# [15] = Toxicity in BALB/c mouse infected with Trypanosoma cruzi Y trypomastigotes assessed as animal survival at 25 mg/kg/day, po administrated via gavage for consecutive 10 days relative to control; assay type: organism-based; conditions: in vivo, time 10 day
# Trypanosoma cruzi [16] = assay: (§3) Antitrypanosomal activity against Trypanosoma cruzi Y trypomastigotes infected in BALB/c mouse model assessed as reduction of parasitemia level at 25 mg/kg/day, po administered via gavage observed on 7 day of post infection relative to control; assay type: functional; set-up: scale not given: the % may be the effect or the level left
# Trypanosoma cruzi [17] = assay: as §3, with “parasite load in cardiac tissue by measuring reduction in DNA copy number” for “parasitemia level”, “11” for “7”, “infection by qPCR analysis” for “infection”; assay type: functional; set-up: scale not given: the % may be the effect or the level left
# Trypanosoma cruzi [18] = assay: Antitrypanosomal activity against Trypanosoma cruzi Y trypomastigotes infected in BALB/c mouse model assessed as reduction of parasitemia level at 25 mg/kg/day, po administered via gavage administrated for consecutive 10 days and measured on day 11; assay type: functional, organism-based; conditions: time 11.0 day
Structure (SMILES),IC50 (Trypanosoma cruzi [2]),CC50 at 72 h [1],selectivity ratio [3],IC50 (Leishmania amazonensis [7]),selectivity ratio [8],other results
COc1cc(OC)c(Cl)c(-c2cc(Cn3ccnc3[N+](=O)[O-])on2)c1,12 µM,> 50 µM,> 4.2,2.2 µM,> 22.6,Ratio IC50 (Leishmania amazonensis [9]): 7.6
O=[N+]([O-])c1nccn1Cc1cc(-c2ccc(O)cc2)no1,0.6 µM,> 50 µM,> 87.7,18.7 µM,> 2.7,Activity (Trypanosoma cruzi [10]): inactive; Kobs (Trypanosoma cruzi [4]): 0.68 s⁻¹; Kobs (Trypanosoma cruzi [5]): 0.47 s⁻¹; Activity (Trypanosoma cruzi [11]): inactive; Activity (Trypanosoma cruzi [12]): Active; Activity (Trypanosoma cruzi [13]): Active; Activity [14]: Non-Toxic; Ratio IC50 (Trypanosoma cruzi [6]): 12; survival at 240 h [15]: 100%
CC(C)N1CCN(c2ccc(-c3cc(Cn4ccnc4[N+](=O)[O-])on3)cc2)CC1,6.6 µM,> 50 µM,> 7.6,4.7 µM,> 10.6,Ratio IC50 (Leishmania amazonensis [9]): 3.5
O=[N+]([O-])c1nccn1Cc1cc(-c2ccc(OC(F)(F)F)cc2)no1,15.2 µM,> 50 µM,> 3.3,35.6 µM,> 1.4,–
COc1ccc(-c2cc(Cn3ccnc3[N+](=O)[O-])on2)cc1[N+](=O)[O-],24.2 µM,> 50 µM,> 2.1,15.2 µM,> 3.3,Kobs (Trypanosoma cruzi [4]): 0.57 s⁻¹; Kobs (Trypanosoma cruzi [5]): 0.54 s⁻¹
O=[N+]([O-])c1nccn1Cc1cc(-c2ccc(N3CCNCC3)cc2)no1,4.7 µM,> 50 µM,> 10.5,2.5 µM,> 19.8,Ratio IC50 (Leishmania amazonensis [9]): 6.6
Cc1ccc(-c2cc(Cn3ccnc3[N+](=O)[O-])on2)cc1[N+](=O)[O-],33.6 µM,> 50 µM,> 1.5,3.3 µM,> 15.3,Ratio IC50 (Leishmania amazonensis [9]): 5.1
COc1cccc(-c2cc(Cn3ccnc3[N+](=O)[O-])on2)c1,11.2 µM,> 50 µM,> 4.4,12.5 µM,> 4,–
O=[N+]([O-])c1nccn1Cc1cc(-c2cccnc2)no1,7.8 µM,> 50 µM,> 6.4,73.8 µM,> 0.7,–
O=[N+]([O-])c1nccn1Cc1cc(-c2ccc(F)c(F)c2)no1,6.5 µM,> 50 µM,> 7.6,17.7 µM,> 2.8,–
COc1cc(OC)cc(-c2cc(Cn3ccnc3[N+](=O)[O-])on2)c1,6 µM,> 50 µM,> 8.3,10.1 µM,> 4.9,–
O=[N+]([O-])c1cccc(-c2cc(Cn3ccnc3[N+](=O)[O-])on2)c1,5.3 µM,> 50 µM,> 9.4,35.1 µM,> 1.4,–
O=[N+]([O-])c1nccn1Cc1cc(-c2ccc(C(F)(F)F)cc2)no1,23 µM,18.9 µM,0.8,18 µM,1,–
CN1CCN(c2ccc(-c3cc(Cn4ccnc4[N+](=O)[O-])on3)cc2)CC1,0.4 µM,> 50 µM,> 125,15.6 µM,> 3.2,Activity (Trypanosoma cruzi [10]): inactive; Kobs (Trypanosoma cruzi [4]): 0.38 s⁻¹; Kobs (Trypanosoma cruzi [5]): 0.21 s⁻¹; Activity (Trypanosoma cruzi [11]): inactive; Activity (Trypanosoma cruzi [12]): Active; Activity (Trypanosoma cruzi [13]): Active; Activity [14]: Non-Toxic; Ratio IC50 (Trypanosoma cruzi [6]): 10; survival at 240 h [15]: 100%
N#Cc1ccc(-c2cc(Cn3ccnc3[N+](=O)[O-])on2)cc1,> 100 µM,> 50 µM,> 0.6,34.6 µM,> 1.4,–
Cc1ccc(-c2cc(Cn3ccnc3[N+](=O)[O-])on2)cc1,9.3 µM,> 50 µM,> 5.4,26.7 µM,> 1.9,–
CCN1CCN(c2ccc(-c3cc(Cn4ccnc4[N+](=O)[O-])on3)cc2)CC1,1.6 µM,> 50 µM,> 30.8,5.5 µM,> 9,Activity (Trypanosoma cruzi [16]): 77%; Activity (Trypanosoma cruzi [10]): inactive; Kobs (Trypanosoma cruzi [4]): 0.48 s⁻¹; Kobs (Trypanosoma cruzi [5]): 0.23 s⁻¹; Activity (Trypanosoma cruzi [17]): 73%; Activity (Trypanosoma cruzi [12]): Active; Activity (Trypanosoma cruzi [13]): Active; Activity [14]: Non-Toxic; survival at 240 h [15]: 100%; Activity (Trypanosoma cruzi [18]): inactive
O=[N+]([O-])c1ccc(-c2cc(Cn3ccnc3[N+](=O)[O-])on2)cc1,18.3 µM,46.1 µM,2.5,32.4 µM,1.4,–
O=[N+]([O-])c1nccn1Cc1cc(-c2ccc(N3CCN(CCO)CC3)cc2)no1,7.5 µM,> 50 µM,> 6.7,5.6 µM,> 8.8,Ratio IC50 (Leishmania amazonensis [9]): 2.9

# Further molecules by falling IC50 (Trypanosoma cruzi [2]), results first:
IC50 (Trypanosoma cruzi [2]),Structure (SMILES),CC50 at 72 h [1],selectivity ratio [3],IC50 (Leishmania amazonensis [7]),selectivity ratio [8],other results
4.6 µM,COc1ccccc1-c1cc(Cn2ccnc2[N+](=O)[O-])on1,> 50 µM,> 10.9,12.7 µM,> 3.9,–
4 µM,O=[N+]([O-])c1nccn1Cc1cc(-c2ccccc2)no1,> 50 µM,> 12.3,33.1 µM,> 1.5,–
3.9 µM,O=[N+]([O-])c1nccn1Cc1cc(-c2ccc(N3CCCCCC3)cc2)no1,> 50 µM,> 12.8,25.1 µM,> 1.9,–
3.6 µM,O=[N+]([O-])c1nccn1Cc1cc(-c2ccc3c(c2)OCO3)no1,> 50 µM,> 13.8,8.3 µM,> 6,Ratio IC50 (Leishmania amazonensis [9]): 2
3.3 µM,O=[N+]([O-])c1nccn1Cc1cc(-c2ccc(F)cc2)no1,> 50 µM,> 15.3,24.2 µM,> 2.1,–
2.8 µM,O=[N+]([O-])c1nccn1Cc1cc(-c2ccc(N3CCOCC3)cc2)no1,> 50 µM,> 18,54.1 µM,> 0.9,–
2.3 µM,CN(C)c1ccc(-c2cc(Cn3ccnc3[N+](=O)[O-])on2)cc1,> 50 µM,> 21.2,33.4 µM,> 1.5,Kobs (Trypanosoma cruzi [4]): 0.31 s⁻¹; Kobs (Trypanosoma cruzi [5]): 0.24 s⁻¹
2.2 µM,O=[N+]([O-])c1nccn1Cc1cc(-c2ccc(Cl)c(Cl)c2)no1,> 50 µM,> 22.2,18.9 µM,> 2.6,–
1.9 µM,COc1ccc(-c2cc(Cn3ccnc3[N+](=O)[O-])on2)cc1,> 50 µM,> 25.6,17.3 µM,> 2.9,–
1.9 µM,COc1cc(-c2cc(Cn3ccnc3[N+](=O)[O-])on2)cc(OC)c1OC,> 50 µM,> 25.9,14.6 µM,> 3.4,–
1.6 µM,CN1CCCN(c2ccc(-c3cc(Cn4ccnc4[N+](=O)[O-])on3)cc2)CC1,> 50 µM,> 32,2.3 µM,> 21.3,Ratio IC50 (Leishmania amazonensis [9]): 7.1
1.5 µM,O=[N+]([O-])c1nccn1Cc1cc(-c2ccc(Cl)cc2)no1,48 µM,32.5,26.6 µM,1.8,–
0.9 µM,O=[N+]([O-])c1ccc(-c2cc(Cn3ccnc3[N+](=O)[O-])on2)o1,> 50 µM,> 51,–,–,Kobs (Trypanosoma cruzi [4]): 1.27 s⁻¹; Kobs (Trypanosoma cruzi [5]): 0.75 s⁻¹; Ratio IC50 (Trypanosoma cruzi [6]): 5.4
